The values below come from patent US20240293323A1, “PHARMACEUTICAL COMPOSITIONS OF AN EPIDERMAL GROWTH FACTOR RECEPTOR INHIBITOR” (Blueprint Mdeicines Coroporation, priority 2021, published 2024).

A short description of the data set: Aqueous solubility. In kind it is physicochemical.

As for `CO[C@@H]1CCN(c2nccc(Nc3cc4c(C(C)C)ccc(N5C[C@H](CS(C)(=O)=O)[C@H]5C)c4cn3)n2)C[C@@H]1F` [Compound (I), N-(2-((3S,4R)-3-fluoro-4-methoxypiperidin-1-yl)pyrimidin-4-yl)-5-isopropyl-8-((2R,3S)-2-methyl-3-((methylsulfonyl)methyl)azetidin-1-yl)isoquinolin-3-amine], the aqueous solubility entry was “low aqueous solubility”.
